Reference: US8337881B2, “Cyanoacrylate monomer formulation containing diiodomethyl-p-tolylsulfone” (Ethicon, Inc., priority 2003, dated 2012)
Read-outs that look alike come from different tables or passages of the source.

Key:
[1] = system: Enterococcus faecium 700221; test: MIC/MBC of pure DIMPTS, tube dilution procedure; format: cell-based; settings: preliminary evaluation
Protocol: (§1) Minimum inhibitory concentration is the lowest concentration that prevents the development of visible growth after a period of incubation. Minimum bactericidal concentration is the lowest concentration that achieves a 1000 fold or greater reduction in the original bacterial inoculum. The minimum inhibitory concentration (MIC) and minimum bactericidal concentration (MBC) is evaluated using tube dilution procedure. The effectiveness of the antimicrobial property of pure […] is described in terms of minimum inhibitory concentration (MIC) and minimum bactericidal concentration (MBC) in Table II (A).

[2] = system: Staphylococcus aureus 33591; test: MIC/MBC of pure DIMPTS, tube dilution procedure; format: cell-based; settings: preliminary evaluation
Protocol: as §1

[3] = Solubility of DIMPTS in cyanoacrylate monomer; format: physicochemical
From the text: Diiodomethyl-p-tolylsulfone (DIMPTS) is soluble in cyanoacrylate monomer at least up to 15,000 ppm (wt./wt.). Accordingly, formulations may herein have a concentration of diiodomethyl-p-tolylsulfone ranging from about 500 (0.05%) to about 10,000 ppm (1.00%), preferably from about 700 (0.07%) to about 7,000 ppm (0.70%), more preferably the concentration of diiodomethyl-p-tolylsulfone is about 2800 ppm (0.28%).

[4] = system: Staphylococcus aureus 6538; test: MIC/MBC of pure DIMPTS, tube dilution procedure; format: cell-based; settings: preliminary evaluation
Protocol: (§2) Minimum inhibitory concentration is the lowest concentration that prevents the development of visible growth after a period of incubation. Minimum bactericidal concentration is the lowest concentration that achieves a 1000 fold or greater reduction in the original bacterial inoculum. The minimum inhibitory concentration (MIC) and minimum bactericidal concentration (MBC) is evaluated using tube dilution procedure.
(§3) The effectiveness of the antimicrobial property of pure DIMPTS is described in terms of minimum inhibitory concentration (MIC) and minimum bactericidal concentration (MBC) in Table II (A).

Bacillus subtilis 902173 = test: MIC/MBC of pure DIMPTS, tube dilution procedure; format: cell-based; settings: preliminary evaluation
Protocol: as §2, §3

Candida albicans 10231 = test: MIC/MBC of pure DIMPTS, tube dilution procedure; format: cell-based
Protocol: as §2, §3

[5] = system: Streptococcus agalactiae 624; test: MIC/MBC of pure DIMPTS, tube dilution procedure; format: cell-based; settings: preliminary evaluation
Protocol: as §2, §3

[6] = system: Staphylococcus epidermidis 51625; test: MIC/MBC of pure DIMPTS, tube dilution procedure; format: cell-based; settings: preliminary evaluation
Protocol: as §2, §3

Escherichia coli 8739 = test: MIC/MBC of pure DIMPTS, tube dilution procedure; format: cell-based; settings: preliminary evaluation
Protocol: as §2, §3

[7] = system: Pseudomonas aeruginosa 9027; test: MIC/MBC of pure DIMPTS, tube dilution procedure; format: cell-based; settings: preliminary evaluation
Protocol: as §2, §3

[8] = aqueous; cited from earlier work

Row | SMILES | MIC [1] | MBC [2] | MIC [2] | soluble in cyanoacrylate monomer [3] | MBC [4] | MIC [4] | MBC (Bacillus subtilis 902173) | MIC (Bacillus subtilis 902173) | MBC (Candida albicans 10231; Candida albicans 10231, preliminary evaluation) | MIC (Candida albicans 10231; Candida albicans 10231, preliminary evaluation, read-out: MIC) | MIC (Candida albicans 10231; Candida albicans, 10231, statement in description, strain not given, read-out: minimum inhibitory concentration against C. albicans) | MBC [5] | MIC [5] | MBC [6] | MIC [6] | MBC (Escherichia coli 8739) | MIC (Escherichia coli 8739) | MIC [7] | pKa [8]
1 | Cc1ccc(S(=O)(=O)C(I)I)cc1 [DIMPTS, diiodomethyl-p-tolylsulfone] | 50 µg/mL | < 250 µg/mL | 12.5 µg/mL | ≥ 15,000 ppm (wt./wt.) | < 250 µg/mL | 100 µg/mL | 50 to 100 µg/mL | 50 µg/mL | 10 to 100 µg/mL | 5 µg/mL | ~5 µg/mL | 125 to 250 µg/mL | 50 µg/mL | < 100 µg/mL | 25 µg/mL | < 250 µg/mL | 100 µg/mL | > 100 µg/mL | 
2 | [O-][Cl+3]([O-])([O-])O [perchloric acid] |  |  |  |  |  |  |  |  |  |  |  |  |  |  |  |  |  |  | −5.0
